These results are taken from ChEMBL document CHEMBL3600330, “Synthesis and biological evaluation of novel piperidine-benzodioxole derivatives designed as potential leishmanicidal drug candidates” (Bioorg Med Chem Lett, 2015).

The IC50 is the midpoint of a concentration-inhibition curve. As usually defined, the CC50 is the concentration at which the toxic effect on the cells reaches its halfway point.

Bounds are passed on as bounds.

Data set [1] can be described thus: Selectivity ratio of CC50 for human PBMC to IC50 for promastigote form of Leishmania amazonensis.
Data set [2] has as its system Leishmania amazonensis. In words: Leishmanicidal activity against promastigote form of Leishmania amazonensis assessed as inhibition of parasite growth after 72 hrs by Neubauer's chamber method. It counts as functional, organism-based.
A short description of data set [3]: (§1) Cytotoxicity against human PBMC assessed as cell viability after 48 hrs by MTT reduction assay. It counts as cell-based. Particulars: PBMC (peripheral blood mononuclear cells). In general terms: Formazan colour is commonly taken as a measure of viable cells.
The test system of another data set is PBMC. Described as §1. Format: cell-based. Particulars: pbmc, 48 h.
Data set [4] deals with Leishmania amazonensis. As to the kind of experiment: Leishmanicidal activity against promastigote form of Leishmania amazonensis […] assessed as inhibition of parasite growth after 48 hrs by Neubauer's chamber method. Format: functional, organism-based.

Regarding `O=C(OCC1CCN(Cc2ccc3c(c2)OCO3)CC1)c1ccccc1`, the “Ratio CC50/IC50” value in data set [1] came out at 3.9. In addition, the IC50 in the data set with Leishmania amazonensis [2] worked out at 78.3 µM. In addition, in data set [3], the CC50 at 48 h came out at 306 µM.

As to `O=C(OCC1CCN(Cc2ccc3c(c2)OCO3)CC1)c1ccc(Br)cc1`, the “Ratio CC50/IC50” value in data set [1] came out at 5.43. Further, in the data set with Leishmania amazonensis [2], the IC50 is 38.3 µM. Moreover, the CC50 at 48 h in data set [3] is 208 µM.

In the case of `O=C(OCC1CCN(Cc2ccc3c(c2)OCO3)CC1)c1ccc(F)cc1`, the “Ratio CC50/IC50” value in data set [1] is listed as 7.33. In addition, the IC50 with Leishmania amazonensis [2] turned out to be 57.4 µM. Moreover, the CC50 at 48 h in data set [3] worked out at 420 µM.

Regarding `O=C(OCC1CCN(Cc2ccc3c(c2)OCO3)CC1)c1ccc2c(c1)OCO2`, in data set [1], the “Ratio CC50/IC50” value came out at 12.88. The IC50 with Leishmania amazonensis [2] was determined as 28.1 µM. In data set [3], the CC50 at 48 h came out at 362 µM.

Turning to `O=C(OCC1CCN(Cc2ccc3c(c2)OCO3)CC1)c1ccc(Cl)cc1`, the IC50 in the data set with Leishmania amazonensis [2] is above 103 µM. For the same molecule, in the data set with PBMC, the CC50 entry is listed as “Non-toxic”.

Take `O=C(/C=C/c1ccc2c(c1)OCO2)OCC1CCN(Cc2ccc3c(c2)OCO3)CC1`: in data set [1], the “Ratio CC50/IC50” value is reported as below 10.06. Moreover, the IC50 in the data set with Leishmania amazonensis [2] is above 94.5 µM. Also, the CC50 at 48 h in data set [3] is 950 µM.

With `O=C(OCC1CCN(Cc2ccc3c(c2)OCO3)CC1)c1ccc([N+](=O)[O-])cc1`, in data set [1], the “Ratio CC50/IC50” value was determined as 20.64. Besides, the IC50 in the data set with Leishmania amazonensis [2] came out at 17.2 µM. The CC50 at 48 h in data set [3] was determined as 356 µM.

As for `COc1ccc(C(=O)OCC2CCN(Cc3ccc4c(c3)OCO4)CC2)cc1OC`, the “Ratio CC50/IC50” value in data set [1] turned out to be 39.76. The IC50 in the data set on Leishmania amazonensis [2] worked out at 43.2 µM. Also, the CC50 at 48 h in data set [3] was determined as 1720 µM.

In the case of `CCCCCCNC(=O)OCC1CCN(Cc2ccc3c(c2)OCO3)CC1`, the “Ratio CC50/IC50” value in data set [1] was 5. In the data set on Leishmania amazonensis [2], the IC50 was 28.6 µM. In addition, in data set [3], the CC50 at 48 h came out at 143 µM.

As to `CCNC(=O)OCC1CCN(Cc2ccc3c(c2)OCO3)CC1`, the “Ratio CC50/IC50” value in data set [1] is below 19.48. Also, the IC50 in the data set with Leishmania amazonensis [2] is above 125 µM. The CC50 at 48 h in data set [3] amounted to 2430 µM.

Regarding `O=C(/C=C/C=C/c1ccc2c(c1)OCO2)N1CCCCC1` [PIPERINE], the IC50 in the data set with Leishmania amazonensis [4] turned out to be 14.5 µM.
